Drawing on US10933056B2, “3-(1H-pyrazol-4-yl)pyridine allosteric modulators of the M4 muscarinic acetylcholine receptor” (Merck Sharp & Dohme Corp., priority 2015, dated 2021), this text covers EC50 for 29 compounds.

In the assay the target is T1, human M4 muscarinic acetylcholine receptor (Homo sapiens, UniProt P08173).
T1 construct: expressed in transfected cells; host or cells: CHO-K1
T1 sequence (P08173 1-479): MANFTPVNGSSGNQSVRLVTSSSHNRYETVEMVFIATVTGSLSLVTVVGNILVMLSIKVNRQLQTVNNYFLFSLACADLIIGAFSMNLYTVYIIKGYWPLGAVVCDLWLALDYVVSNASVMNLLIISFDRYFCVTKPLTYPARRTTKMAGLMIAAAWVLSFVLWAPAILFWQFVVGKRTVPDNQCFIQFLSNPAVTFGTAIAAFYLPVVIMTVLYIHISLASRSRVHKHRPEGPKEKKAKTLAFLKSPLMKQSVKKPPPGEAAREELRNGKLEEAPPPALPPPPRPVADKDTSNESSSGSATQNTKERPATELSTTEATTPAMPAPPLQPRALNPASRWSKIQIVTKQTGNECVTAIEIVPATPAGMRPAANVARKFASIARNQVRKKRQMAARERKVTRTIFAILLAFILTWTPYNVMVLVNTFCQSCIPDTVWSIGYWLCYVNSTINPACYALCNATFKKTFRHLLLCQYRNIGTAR
Put plainly: human FLIPR-based M4 PAM assay (calcium mobilization in CHO-K1 cells with human M4 receptor and Gαqi5). It is filed as cell-based. The note with it: inflection point of dose response curve, acetylcholine at 20% of maximum response, FLIPR Tetra, read-out: M4 PAM IP. The method in brief:
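CHO-K1 cells stably expressing human M4 and chimeric Gαqi5 were dye-loaded ~1 h at 37° C. Test compound was added with fluorescence recorded 4 min, then acetylcholine at EC20 (sometimes a further EC70 addition) with reading 3.5 min. Value is the inflection point of a 4-parameter logistic fit.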
A general note: Calcium assays in cells follow changes in intracellular calcium, usually with a dye or a luminescent sensor.
For `CC1(Cn2cc(-c3ccc(C#N)nc3-c3cnc4c(c3)C(=O)NC4)cn2)CCCC1` [Example 101, 5-(1-((1-methylcyclopentyl)methyl)-1H-pyrazol-4-yl)-6-(5-oxo-6,7-dihydro-5H-pyrrolo[3,4-b]pyridin-3-yl)picolinonitrile], the EC50 was 18 nM.

In the case of `CNC(=O)c1ccc(-c2cnn(CC3CCCC3)c2)c(-c2ccc3c(c2)C(=O)N(C2CC2)C3)n1` [Example 13, 5-(1-(cyclopentylmethyl)-1H-pyrazol-4-yl)-6-(2-cyclopropyl-3-oxoisoindolin-5-yl)-N-methylpicolinamide], the EC50 was determined as 613 nM.

As for `O=C1c2cc(-c3nccc(F)c3-c3cnn(CC4CCCC4)c3)ccc2CN1CC1CC1` [Example 7, 6-(3-(1-(cyclopentylmethyl)-1H-pyrazol-4-yl)-4-fluoropyridin-2-yl)-2-(cyclopropylmethyl)isoindolin-1-one], the EC50 amounted to 22 nM.

Take `N#Cc1ccc(-c2cnn(CC3CCCC3)c2)c(-c2ccc3c(c2)C(=O)N(CC2CC2)C3)n1` [Example 18, 5-(1-(cyclopentylmethyl)-1H-pyrazol-4-yl)-6-(2-(cyclopropylmethyl)-3-oxoisoindolin-5-yl)picolinonitrile]: the EC50 was found to be 8 nM.

In the case of `NS(=O)(=O)c1ccc(CCN2Cc3ccc(-c4ncccc4-c4cnn(CC5CCCC5)c4)cc3C2=O)cc1` [Example 91, 4-(2-(6-(3-(1-(cyclopentylmethyl)-1H-pyrazol-4-yl)pyridin-2-yl)-1-oxoisoindolin-2-yl)ethyl)benzenesulfonamide], the EC50 was 49 nM.

For the compound `CC1(Cn2cc(-c3cc4c(nc3-c3cnc5c(c3)C(=O)N(CC3CC3)C5)[C@@H](F)CC4)cn2)CCCC1` (single isomer, unassigned) [Example 1B], the EC50 was 75 nM.

Consider `Cc1ccc(-c2cnn(CC3(C)CCCC3)c2)c(-c2ccc3c(c2)C(=O)N(C)C3=O)n1` [Example 98, 2-methyl-5-(6-methyl-3-(1-((1-methylcyclopentyl)methyl)-1H-pyrazol-4-yl)pyridin-2-yl)isoindoline-1,3-dione], for which the EC50 was determined as 29 nM.

On to `Cc1cc(-c2cnn(CC3(C)CCCC3)c2)c(-c2ccc3c(c2)C(=O)N(C)C3)nc1Cl` [Example 38, 6-(6-chloro-5-methyl-3-(1-((1-methylcyclopentyl)methyl)-1H-pyrazol-4-yl)pyridin-2-yl)-2-methylisoindolin-1-one], for which the EC50 amounted to 33 nM.

In the case of `CC#CCN1Cc2ncc(-c3nc4c(cc3-c3cnn(CC5(C)CCCC5)c3)CCC4)cc2C1=O` [Example 119, 6-(but-2-yn-1-yl)-3-(3-(1-((1-methylcyclopentyl)methyl)-1H-pyrazol-4-yl)-6,7-dihydro-5H-cyclopenta[b]pyridin-2-yl)-6,7-dihydro-5H-pyrrolo[3,4-b]pyridin-5-one], the EC50 was found to be 71 nM.

With `C#CCN1Cc2ncc(-c3nc4c(cc3-c3cnn(CC5(C)CCCC5)c3)CCC4)cc2C1=O` [Example 118, 3-(3-(1-((1-methylcyclopentyl)methyl)-1H-pyrazol-4-yl)-6,7-dihydro-5H-cyclopenta[b]pyridin-2-yl)-6-(prop-2-yn-1-yl)-6,7-dihydro-5H-pyrrolo[3,4-b]pyridin-5-one], the EC50 was determined as 79 nM.

For the compound `CC(C)N1Cc2ncc(-c3nc(C#N)ccc3-c3cnn(CC4(C)CCCC4)c3)cc2C1=O` [Example 121, 6-(6-isopropyl-5-oxo-6,7-dihydro-5H-pyrrolo[3,4-b]pyridin-3-yl)-5-(1-((1-methylcyclopentyl)methyl)-1H-pyrazol-4-yl)picolinonitrile], the EC50 was determined as 134 nM.

Consider `Cc1cc(-c2cnn(CC3(C)CCCC3)c2)c(-c2ccc3c(c2)C(=O)N(C)C3)nc1CF` [Example 114, 6-(6-(Fluoromethyl)-5-methyl-3-(1-((1-methylcyclopentyl)methyl)-1H-pyrazol-4-yl)pyridin-2-yl)-2-methylisoindolin-1-one], for which the EC50 turned out to be 57 nM.

On to `Cc1ccc(-c2cnn(CC3(C)CCCC3)c2)c(-c2ccc3c(c2)C(=O)N(CC2CC2)C3)n1` [Example 65, 2-(cyclopropylmethyl)-6-(6-methyl-3-(1-((1-methylcyclopentyl)methyl)-1H-pyrazol-4-yl)pyridin-2-yl)isoindolin-1-one], for which the EC50 was found to be 136 nM.

As for `CN1Cc2ccc(-c3nc(Cl)cc(N)c3-c3cnn(CC4(C)CCCC4)c3)cc2C1=O` [Example 63, 6-(4-amino-6-chloro-3-(1-((1-methylcyclopentyl)methyl)-1H-pyrazol-4-yl)pyridin-2-yl)-2-methylisoindolin-1-one], the EC50 came out at 489 nM.

`C#CCN1Cc2ccc(-c3nc(C#N)ccc3-c3cnn(CC4(C)CCCC4)c3)cc2C1=O` [Example 120A]: the EC50 was 17 nM.

Take `COCCN1Cc2ncc(-c3nc4c(cc3-c3cnn(CC5(C)CCCC5)c3)CCC4)cc2C1=O` [Example 70, 6-(2-methoxyethyl)-3-(3-(1-((1-methylcyclopentyl)methyl)-1H-pyrazol-4-yl)-6,7-dihydro-5H-cyclopenta[b]pyridin-2-yl)-6,7-dihydro-5H-pyrrolo[3,4-b]pyridin-5-one]: the EC50 was 47 nM.

Regarding `CN1Cc2ccc(-c3nc(C#N)ccc3-c3cnn(CC4(C)CCCC4)c3)cc2C1=O` [Example 2, 6-(2-Methyl-3-oxoisoindolin-5-yl)-5-(1-((1-methylcyclopentyl)methyl)-1H-pyrazol-4-yl)picolinonitrile], the EC50 is 16 nM.

Regarding `CN1Cc2ncc(-c3nc(C(F)F)ccc3-c3cnn(CC4(C)CCCC4)c3)cc2C1=O` [Example 80, 3-(6-(difluoromethyl)-3-(1-((1-methylcyclopentyl)methyl)-1H-pyrazol-4-yl)pyridin-2-yl)-6-methyl-6,7-dihydro-5H-pyrrolo[3,4-b]pyridin-5-one], the EC50 was found to be 26 nM.

In the case of `CN1Cc2ccc(-c3nc(Cl)ccc3-c3cnn(CC4CCCC4)c3)cc2C1=O` [Example 107, 6-(6-Chloro-3-(1-(cyclopentylmethyl)-1H-pyrazol-4-yl)pyridin-2-yl)-2-methylisoindolin-1-one], the EC50 was 15 nM.

For `Cc1cc(N)c(-c2cnn(CC3(C)CCCC3)c2)c(-c2ccc3c(c2)C(=O)N(C)C3)n1` [Example 62, 6-(4-amino-6-methyl-3-(1-((1-methylcyclopentyl)methyl)-1H-pyrazol-4-yl)pyridin-2-yl)-2-methylisoindolin-1-one], the EC50 came out at 293 nM.

Consider `O=C1c2cc(-c3ncccc3-c3cnn(CC4CCCC4)c3)ccc2CN1C1COC1` [Example 88, 6-(3-(1-(cyclopentylmethyl)-1H-pyrazol-4-yl)pyridin-2-yl)-2-(oxetan-3-yl)isoindolin-1-one], for which the EC50 worked out at 240 nM.

For `Cc1cc(-c2cnn(CC3(C)CCCC3)c2)c(-c2cnc3c(c2)C(=O)N(C)C3)nc1F` [Example 1, 3-(6-Fluoro-5-methyl-3-(1-((1-methylcyclopentyl)methyl)-1H-pyrazol-4-yl)pyridin-2-yl)-6-methyl-6,7-dihydro-5H-pyrrolo[3,4-b]pyridin-5-one], the EC50 stood at 39 nM.

With `O=C1c2cc(-c3nc(Cl)ccc3-c3cnn(CC4CCCC4)c3)ccc2CN1C1CC1` [Example 108, 6-(6-chloro-3-(1-(cyclopentylmethyl)-1H-pyrazol-4-yl)pyridin-2-yl)-2-cyclopropylisoindolin-1-one], the EC50 came out at 17 nM.

In the case of `CC1(Cn2cc(-c3ccc(F)nc3-c3ccc4c(c3)C(=O)N(C3CC3)C4)cn2)CCCC1` [Example 35, 2-cyclopropyl-6-(6-fluoro-3-(1-((1-methylcyclopentyl)methyl)-1H-pyrazol-4-yl)pyridin-2-yl)isoindolin-1-one], the EC50 came to 9 nM.

For `CC#CCN1Cc2ncc(-c3nc(C#N)ccc3-c3cnn(CC4(C)CCCC4)c3)cc2C1=O` [Example 122, 6-(6-(but-2-yn-1-yl)-5-oxo-6,7-dihydro-5H-pyrrolo[3,4-b]pyridin-3-yl)-5-(1-((1-methylcyclopentyl)methyl)-1H-pyrazol-4-yl)picolinonitrile], the EC50 turned out to be 41 nM.

As for `CC1(Cn2cc(-c3cc4c(nc3-c3ccc5c(c3)C(=O)NC5)CCC4)cn2)CCCC1` [Example 55, 6-(3-(1-((1-methylcyclopentyl)methyl)-1H-pyrazol-4-yl)-6,7-dihydro-5H-cyclopenta[b]pyridin-2-yl)isoindolin-1-one], the EC50 was 38 nM.

In the case of `Cc1ccc(-c2cnn(CC3CCCC3)c2)c(-c2ccc3c(c2)C(=O)N(CC2CCCO2)C3)n1` (centres unmarked) [Example 5, 6-(3-(1-(cyclopentylmethyl)-1H-pyrazol-4-yl)-6-methylpyridin-2-yl)-2-((tetrahydrofuran-2-yl)methyl)isoindolin-1-one], the EC50 stood at 20 nM.

On to `CN1Cc2ccc(-c3nc(C#N)ccc3-c3cnn(CC4(C)CCCC4)c3F)cc2C1=O` [Example 43, 5-(5-fluoro-1-((1-methylcyclopentyl)methyl)-1H-pyrazol-4-yl)-6-(2-methyl-3-oxoisoindolin-5-yl)picolinonitrile], for which the EC50 was determined as 20 nM.

In the case of `COC(=O)CN1Cc2ccc(-c3nc(C#N)ccc3-c3cnn(CC4(C)CCCC4)c3)cc2C1=O` [Example 34A, methyl 2-(6-(6-cyano-3-(1-((1-methylcyclopentyl)-methyl)-1H-pyrazol-4-yl)pyridin-2-yl)-1-oxoisoindolin-2-yl)acetate], the EC50 was found to be 44 nM.
